The source of these data is ChEMBL document CHEMBL1132821, “2,4,5-Trisubstituted imidazoles: novel nontoxic modulators of P-glycoprotein mediated multidrug resistance. Part 1” (Bioorg Med Chem Lett, 2000).

In test [1] the target is ATP-dependent translocase ABCB1 (Homo sapiens, UniProt P08183). Description: Evaluated for inhibition of growth of CEM/VLB1000 cell line using multidrug resistance (MDR) potentiation assay.
Test [2] has as its system NCI/ADR-RES. Nature of the test: Compound (1 uM) was evaluated for the inhibition of cell growth in MCF-7/ADR* cell line (over expresses Pgp and is for Doxorubicin resistant) in the presence of Taxol. Format: functional. To be noted: Homo sapiens, read-out: ED50 (the source's name).
Test [3] has as its system MES-SA/Dx5. Nature of the test: Compound (1 uM) was evaluated for the inhibition of cell growth in MES-SA/DX5** cell line (over expresses Pgp and is for Doxorubicin resistant) in the presence of doxorubicin. Format: functional. Conditions: Homo sapiens, read-out: ED50 (the source's name).
Test [4] relates to NCI/ADR-RES. Description: Compound (1 uM) was evaluated for the inhibition of cell growth in MCF-7/ADR* cell line (over expresses Pgp and is for Doxorubicin resistant) in the presence of vinblastine. Conditions: Homo sapiens, read-out: ED50 (the source's name). Format: functional.
For test [5], the system named is MES-SA/Dx5. Nature of the test: Compound (1 uM) was evaluated for the inhibition of cell growth in MES-SA/DX5** cell line (over expresses Pgp and is for Doxorubicin resistant) in the presence of taxol. The test is classed as functional. To be noted: Homo sapiens, read-out: ED50 (the source's name).
Test [6] relates to NCI/ADR-RES. Description: Compound (1 uM) was evaluated for the inhibition of cell growth in MCF-7/ADR cell line (over expresses Pgp and is for Doxorubicin resistant) in the presence of Taxol. Format: functional. Conditions: Homo sapiens, read-out: ED50 (the source's name).
Test [7] concerns MES-SA/Dx5. Description: Compound (1 uM) was evaluated for the inhibition of cell growth in MES-SA/DX5 cell line (over expresses Pgp and is Doxorubicin resistant) in the presence of doxorubicin. Format: functional. To be noted: Homo sapiens, read-out: ED50 (the source's name).
Test [8] concerns NCI/ADR-RES. Description: Compound (1 uM) was evaluated for the inhibition of cell growth in MCF-7/ADR cell line (over expresses Pgp and is for Doxorubicin resistant) in the presence of vinblastine. To be noted: Homo sapiens, read-out: ED50 (the source's name). The test is classed as functional.
Test [9] deals with MES-SA/Dx5. Nature of the test: Compound (1 uM) was evaluated for the inhibition of cell growth in MES-SA/DX5 cell line (over expresses Pgp and is for Doxorubicin resistant) in the presence of taxol. Format: functional. To be noted: Homo sapiens, read-out: ED50 (the source's name).

Chain of ATP-dependent translocase ABCB1 (P08183 whole entry): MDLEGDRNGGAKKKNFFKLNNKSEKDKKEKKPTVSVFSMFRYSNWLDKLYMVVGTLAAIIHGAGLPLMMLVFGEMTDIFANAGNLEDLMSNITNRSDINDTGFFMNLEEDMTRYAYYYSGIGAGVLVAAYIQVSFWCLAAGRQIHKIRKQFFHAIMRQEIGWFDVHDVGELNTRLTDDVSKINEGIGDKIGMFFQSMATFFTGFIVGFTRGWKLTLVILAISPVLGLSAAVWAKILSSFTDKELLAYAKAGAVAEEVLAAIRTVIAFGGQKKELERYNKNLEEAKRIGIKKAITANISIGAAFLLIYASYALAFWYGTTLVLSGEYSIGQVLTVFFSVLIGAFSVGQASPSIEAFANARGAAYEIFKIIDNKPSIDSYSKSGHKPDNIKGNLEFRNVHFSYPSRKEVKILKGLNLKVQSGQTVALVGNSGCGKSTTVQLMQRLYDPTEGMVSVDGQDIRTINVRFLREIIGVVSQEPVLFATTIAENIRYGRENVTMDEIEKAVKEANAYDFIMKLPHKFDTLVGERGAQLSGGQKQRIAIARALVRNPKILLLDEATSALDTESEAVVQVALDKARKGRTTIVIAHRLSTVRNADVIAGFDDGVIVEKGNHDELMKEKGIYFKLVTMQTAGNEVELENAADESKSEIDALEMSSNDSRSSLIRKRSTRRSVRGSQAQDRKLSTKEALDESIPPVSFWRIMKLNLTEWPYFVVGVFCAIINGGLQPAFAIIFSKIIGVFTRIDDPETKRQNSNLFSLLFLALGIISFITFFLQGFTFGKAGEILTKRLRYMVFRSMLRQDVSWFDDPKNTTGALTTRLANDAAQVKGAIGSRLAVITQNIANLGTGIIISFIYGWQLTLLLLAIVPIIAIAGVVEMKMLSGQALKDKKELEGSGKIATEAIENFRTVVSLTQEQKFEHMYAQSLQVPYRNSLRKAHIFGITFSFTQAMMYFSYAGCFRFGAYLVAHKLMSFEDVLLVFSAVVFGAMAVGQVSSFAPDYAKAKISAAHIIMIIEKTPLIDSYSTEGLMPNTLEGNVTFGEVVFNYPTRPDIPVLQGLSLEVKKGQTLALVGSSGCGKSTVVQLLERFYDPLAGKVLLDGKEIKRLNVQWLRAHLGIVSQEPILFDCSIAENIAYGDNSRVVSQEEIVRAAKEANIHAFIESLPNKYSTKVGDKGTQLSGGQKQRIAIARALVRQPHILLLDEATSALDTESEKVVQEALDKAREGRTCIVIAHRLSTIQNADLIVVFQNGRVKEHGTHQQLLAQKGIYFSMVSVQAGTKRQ

For `COCCCc1ccc(-c2nc(-c3ccc(N(C)C)cc3)c(-c3ccc(N(C)C)cc3)[nH]2)cc1`, the GI50 in [1] (read-out: ED50) was found to be 300 nM.

`CN(C)c1ccc(-c2nc(-c3ccc(/C=C/C(=O)O)cc3)n(CCc3ccccc3)c2-c2ccc(N(C)C)cc2)cc1`: in test [1] (read-out: ED50), the GI50 was 20000 nM.

Regarding `CN(C)c1ccc(-c2nc(-c3ccc(/C=C/C#N)cc3)[nH]c2-c2ccc(N(C)C)cc2)cc1`, the GI50 in test [1] (read-out: ED50) is 600 nM. Consider `CN(C)c1ccc(-c2nc(-c3ccc(/C=C/COc4ccccc4)cc3)[nH]c2-c2ccc(N(C)C)cc2)cc1`, for which the GI50 in test [1] (read-out: ED50) amounted to 450 nM. On to `CN(C)c1ccc(-c2nc(-c3ccc(C(=O)O)cc3)[nH]c2-c2ccc(N(C)C)cc2)cc1`, for which, in test [1] (read-out: ED50), the GI50 is 60000 nM. With `CN(C)C/C=C/c1ccc(-c2nc(-c3ccc(N(C)C)cc3)c(-c3ccc(N(C)C)cc3)[nH]2)cc1`, the GI50 in test [1] (read-out: ED50) was found to be 1300 nM.

As to `CN(C)c1ccc(-c2nc(-c3ccc(O)cc3)n(CCc3ccccc3)c2-c2ccc(N(C)C)cc2)cc1`, the GI50 in test [1] (read-out: ED50) amounted to 1000 nM.

Turning to `CN(C)c1ccc(-c2nc(-c3ccc(C(=O)O)cc3)n(CCc3ccccc3)c2-c2ccc(N(C)C)cc2)cc1`, in test [1] (read-out: ED50), the GI50 turned out to be 10000 nM. Consider `CN(C)c1ccc(-c2nc(-c3ccc(/C=C/C(=O)O)cc3)[nH]c2-c2ccc(N(C)C)cc2)cc1`, for which the GI50 in test [1] (read-out: ED50) amounted to 10000 nM. Take `CCN(CC)C(=O)OC/C=C/c1ccc(-c2nc(-c3ccc(N(C)C)cc3)c(-c3ccc(N(C)C)cc3)[nH]2)cc1`: the GI50 in test [1] amounted to 880 nM. For the molecule `COc1ccc(CCN(C)CCCC(C#N)(c2ccc(OC)c(OC)c2)C(C)C)cc1OC` (stereo unspecified), the EC50 in the test on NCI/ADR-RES [2] was found to be 2.5 µg/mL; in the test on MES-SA/Dx5 [3], 3 µg/mL; in the test on NCI/ADR-RES [4] it was 0.251 µg/mL; in the test on MES-SA/Dx5 [5], 2.5 µg/mL.

`CCCCC(=O)OC/C=C/c1ccc(-c2nc(-c3ccc(N(C)C)cc3)c(-c3ccc(N(C)C)cc3)[nH]2)cc1`: the GI50 in [1] (read-out: ED50) is 480 nM. For the molecule `COC(=O)C1CC1c1ccc(-c2nc(-c3ccc(N(C)C)cc3)c(-c3ccc(N(C)C)cc3)[nH]2)cc1` (stereo unspecified), the GI50 in test [1] (read-out: ED50) was 310 nM.

Take `COC(=O)/C=C/c1ccc(-c2nc(-c3ccc(N(C)C)cc3)c(-c3ccc(N(C)C)cc3)[nH]2)cc1`: the GI50 in [1] (read-out: ED50) was 300 nM.

`CN(C)c1ccc(-c2nc(-c3ccc(/C=C/COCc4ccccc4)cc3)[nH]c2-c2ccc(N(C)C)cc2)cc1`: the GI50 in test [1] (read-out: ED50) came out at 300 nM. For the molecule `COCCCCc1ccc(-c2nc(-c3ccc(N(C)C)cc3)c(-c3ccc(N(C)C)cc3)[nH]2)cc1`, in [1] (read-out: ED50), the GI50 came out at 1100 nM. Turning to `CCCCOC/C=C/c1ccc(-c2nc(-c3ccc(N(C)C)cc3)c(-c3ccc(N(C)C)cc3)[nH]2)cc1`, the GI50 in test [1] stood at 110 nM. For the molecule `COCCOC/C=C/c1ccc(-c2nc(-c3ccc(N(C)C)cc3)c(-c3ccc(N(C)C)cc3)[nH]2)cc1`, the GI50 in test [1] (read-out: ED50) was determined as 90 nM. With `CC(C)OC(=O)/C=C/c1ccc(-c2nc(-c3ccc(N(C)C)cc3)c(-c3ccc(N(C)C)cc3)[nH]2)cc1`, the EC50 was determined as 0.15 µg/mL with NCI/ADR-RES [2], 0.34 µg/mL in the test on MES-SA/Dx5 [3], 0.028 µg/mL in the test on NCI/ADR-RES [4] and 0.13 µg/mL in the test on MES-SA/Dx5 [5]. For the molecule `COC/C=C/c1ccc(-c2nc(-c3ccc(N(C)C)cc3)c(-c3ccc(N(C)C)cc3)[nH]2)cc1`, the GI50 in test [1] (read-out: ED50) was determined as 130 nM. Turning to `COC(=O)CCc1ccc(-c2nc(-c3ccc(N(C)C)cc3)c(-c3ccc(N(C)C)cc3)[nH]2)cc1`, the GI50 in test [1] (read-out: ED50) is 1000 nM. `CN(C)c1ccc(-c2nc(-c3ccc(O)cc3)[nH]c2-c2ccc(N(C)C)cc2)cc1`: the GI50 in test [1] (read-out: ED50) was 5000 nM. For the molecule `CCCCCCn1c(-c2ccc(C(=O)OC)cc2)nc(-c2ccc(N(C)C)cc2)c1-c1ccc(N(C)C)cc1`, in test [1], the GI50 is 6000 nM.

As for `CCCCCCn1c(-c2ccc(C(=O)O)cc2)nc(-c2ccc(N(C)C)cc2)c1-c1ccc(N(C)C)cc1`, the GI50 in test [1] (read-out: ED50) turned out to be 2000 nM. On to `CCOC/C=C/c1ccc(-c2nc(-c3ccc(N(C)C)cc3)c(-c3ccc(N(C)C)cc3)[nH]2)cc1`, for which the EC50 with NCI/ADR-RES [6] turned out to be 0.036 µg/mL; in the test on MES-SA/Dx5 [7], 0.089 µg/mL; in the test with NCI/ADR-RES [8], 0.01 µg/mL; in the test with MES-SA/Dx5 [9], 0.024 µg/mL. Moreover, in test [1] (read-out: ED50), the GI50 amounted to 80 nM. As to `COC(=O)c1ccc(-c2nc(-c3ccc(N(C)C)cc3)c(-c3ccc(N(C)C)cc3)[nH]2)cc1`, the GI50 in [1] (read-out: ED50) stood at 600 nM.
